The results in this text go back to patent publication US20050250819A1 (priority 2004, published 2005).

The first assay concerns Type III-dependent secretion of ExoU by P. aeruginosa PA103. Put plainly: Tertiary assay: Type III-dependent secretion of ExoU by P. aeruginosa PA103. Type of assay: cell-based. Conditions: Pseudomonas aeruginosa, ExoU secreted into extracellular medium. The text has this: Tertiary assay: inhibition of Type III protein secretion of effectors from a Pseudomonas aeruginosa system. Type III protein secretion is used by P. aeruginosa to secrete several essential virulence determinants. One effector of the type III protein secretion system of P. aeruginosa PA103 is the virulence determinants ExoU.
The amount of Type III-dependent secretion of ExoU by P. aeruginosa PA103 can be determined in a cell-based assay by quantification of the 73.9 kDa ExoU protein secreted into the extracellular medium. Such quantitation can be achieved by growing strain PA103 in a deferrated medium in the presence of nitrilotriacetic acid (an inducer of Type III protein secretion in P. aeruginosa) and either in the presence or absence of putative inhibitors. After a prolonged growth period, the cells are sedimented and the supernatants concentrated by ammonium sulfate precipitation. The proteins in the resuspended pellets are separated by electrophoresis on SDS-polyacrylamide gels. After staining gels with Colloidal Blue™, the 73.9 kDa ExoU band is quantitated by scanning through an imager. The effects of inhibitors on the intensity of the ExoU band may be measured relative to that of untreated controls.
On to `O=C(N[C@@H](COCc1ccccc1)C(=O)O)/C(=C\c1ccc(Cl)c(Cl)c1)NC(=O)c1ccc(-c2ccccc2)cc1` [Compound 26, (S)-3-Benzyloxy-2-[2-[(biphenyl-4-carbonyl)amino]-3-(3,4-dichlorophenyl)-acryloylamino]propionic acid], for which the half-inhibitory concentration (IC50) (commonly the concentration that gives 50% inhibition) came to 24 µM.

On to `O=C(N[C@H](Cc1ccc(Cl)cc1)C(=O)O)/C(=C\c1cccc(C(F)(F)F)c1)NC(=O)c1ccc(-c2ccccc2)cc1` [Compound 39, (R)-2-[2-[(Biphenyl-4-carbonyl)amino]-3-(3-trifluoromethylphenyl)acryloylamino]-3-(4-chlorophenyl)propionic acid], for which the IC50 was 17 µM.

`O=C(N[C@@H](COCc1ccccc1)C(=O)O)/C(=C\c1ccc(Cl)c(Cl)c1)NC(=O)c1ccc(Oc2ccccc2)cc1` [Compound 49, (S)-3-Benzyloxy-2-[3-(3,4-dichlorophenyl)-2-(4-phenoxybenzoylamino)-acryloylamino]propionic acid] had an IC50 of 75.7 µM.

Consider `O=C(NC(COCc1ccccc1)C(=O)O)/C(=C\c1ccc(-c2ccccc2)cc1)NC(=O)c1ccc(C(F)(F)F)cc1` (centres unmarked) [Compound 133], for which the IC50 came to 100 µM.

Take `O=C(N[C@@H](CSCc1ccccc1)C(=O)O)/C(=C\c1ccc(I)cc1)NC(=O)C1CCN(c2nccc(C(F)(F)F)n2)CC1` [Compound 76, (R)-3-Benzylsulfanyl-2-(3-(4-iodophenyl)-2-{[1-(4-trifluoromethylpyrimidin-2-yl)-piperidine-4-carbonyl]amino}acryloylamino)propionic acid]: inhibition was half-maximal at 56.7 µM (IC50).

In another assay the test system is Type III protein secretion of the chimeric SopE‘-’Bla polypeptide (SPI1 type III protein secretion system). The assay can be described thus: Primary assay: Type III protein secretion of the chimeric SopE'-'Bla polypeptide by Salmonella enterica. Type of assay: cell-based. Conditions: read-out: SopE IC50(μM). The text has this: Primary assay: Type III protein secretion of the chimeric SopE‘-’Bla polypeptide by Salmonella enterica. This procedure is a cell-based assay that measures the type III-dependent secretion by Salmonella enterica of a plasmid-encoded chimeric polypeptide whose synthesis can be regulated, and which is endowed with an enzymatic activity that can be monitored colorimetrically by hydrolysis of a substrate that is unable to penetrate into the bacterial cytoplasm within the time constraints of the reaction. Thus, the colormetric reaction is not influenced by SopE‘-’Bla polypeptide in the bacterial cytplasm. Instead, it effectively measures the amount of polypeptide that has been secreted from the S. enterica cytoplasm to the extracellular medium via type III system protein secretion.
The SopE‘-’Bla recombinant polypeptide consists of two functionally distinct domains spliced together. The N-terminus domain is encoded by a polynucleotide region specifying the signal for type III secretion of the SopE polypeptide of S. enterica, an effector of the SPI1 type III protein secretion system. The C-terminus domain of SopE‘-’Bla consists of a 263 amino acid peptide sequence that corresponds to the TEM-1 β-lactamase expressed by plasmid pBR322 but without its N-terminal signal sequence. The TEM-1 β-lactamase part of the SopE‘-’Bla chimeric polypeptide is used as a reporter enzyme. It is capable of hydrolyzing nitrocefin resulting in a product whose accumulation can be monitored by colorimetric detection. The secretion of the SopE‘-’Bla chimeric polypeptide from the cytoplasm to the extracellular medium is dependent on type III protein secretion.
For this procedure, cells grown under conditions known to favor a functional SPI1 secretion system are induced for expression of the SopE‘-’Bla protein and grown either in the presence or in the absence of putative inhibitors for determined time. Nitrocefin is then added to the various cultures and its hydrolysis are used for quantitation. An inhibitor of Type III protein secretion is generally a compound that reduces the signal of the enzymatic reaction by decreasing the amount of SopE‘-’Bla secreted into the extracellular medium.
`O=C(O)CCCCNC(=O)/C(=C\c1ccc(Cl)c(Cl)c1)NC(=O)c1ccc(-c2ccccc2)cc1` [Compound 113]: the IC50 was 14.5 µM.

For the molecule `Cc1ccc(C(=O)N/C(=C/c2ccc(Cl)c(Cl)c2)C(=O)NC(C(=O)O)C(C)(C)S)cc1` (centres unmarked) [Compound 161], the IC50 was 56 µM.

Consider `O=C(NN(Cc1ccc(-c2ccccc2)cc1)C(=O)N[C@@H](CSCc1ccccc1)C(=O)O)c1ccc(C(F)(F)F)cc1` [Compound 8, 4-Trifluoromethylbenzoic acid-N′-[(biphenyl-4-yl)methyl]-N′-[[[(2-benzylthio)-1-carboxyethyl]amino]carbonyl]hydrazide], for which the IC50 worked out at 10 µM.

With `O=C(NN(Cc1cccc(Oc2ccccc2)c1)C(=O)N[C@@H](COCc1ccccc1)C(=O)O)c1ccc(C(F)(F)F)cc1` [Compound 10, 4-Trifluoromethylbenzoic acid-N′-[(3-phenoxyphenyl)methyl]-N′-[[[(2-benzyloxy)-1-carboxyethyl]amino]carbonyl]hydrazide], the IC50 was 22 µM.

As to `CC(C)(S)C(NC(=O)/C(=C\c1ccc(C(F)(F)F)cc1)NC(=O)c1ccc(-c2ccccc2)cc1)C(=O)O` (centres unmarked) [Compound 124], the IC50 stood at 16 µM.

As to `CCc1ccc(/C=C(/NC(=O)c2ccc(-c3ccccc3)cc2)C(=O)NC(C(=O)O)C(C)(C)S)cc1` (centres unmarked) [Compound 125], the IC50 was 20 µM.

Turning to `O=C(O)CCCCNC(=O)/C(=C\c1ccc(-c2ccccc2)cc1)NC(=O)c1ccc(C(F)(F)F)cc1` [Compound 132], the IC50 amounted to 42 µM.

Regarding `O=C(O)C(Cc1ccc(Cl)cc1)NC(=O)N(CCc1ccc(-c2ccccc2)cc1)Cc1cccc(C(F)(F)F)c1` (centres unmarked) [Compound 87, 2-[3-(2-Biphenyl-4-yl-ethyl)-3-(3-trifluoromethylbenzyl)ureido]-3-(4-chlorophenyl)propionic acid], the IC50 was found to be 1.5 µM.

As for `O=C(N/C(=C/c1cccc(C(F)(F)F)c1)C(=O)N1CCCCC1C(=O)O)c1ccc(C(F)(F)F)cc1` (centres unmarked) [Compound 118], the IC50 stood at 100 µM.

`O=C(N[C@@H](Cc1ccc(Cl)cc1)C(=O)O)/C(=C\c1cccc(C(F)(F)F)c1)NC(=O)c1cc2ccccc2o1` [Compound 69, (S)-2-[2-[(Benzofuran-2-carbonyl)amino]-3-(3-trifluoromethylphenyl)acryloylamino]-3-(4-chlorophenyl)propionic acid]: the IC50 turned out to be 28.5 µM.

For `O=C(NN(Cc1cccc(C(F)(F)F)c1)C(=O)NC(Cc1ccc(Cl)cc1)C(=O)O)c1ccc(-c2ccccc2)cc1` (centres unmarked) [Compound 51, 4-Biphenylcarboxylic acid-N′-[(3-trifluoromethylphenyl)methyl]-N′-[[[2-(4-chlorophenyl)-1-carboxyethyl]amino]carbonyl]hydrazide], the IC50 was found to be 8 µM.

With `O=C(N[C@@H](Cc1ccc(Cl)cc1)C(=O)O)/C(=C\c1ccc(Cl)c(Cl)c1)NC(=O)c1cc2ccccc2s1` [Compound 66, (S)-2-[2-[(Benzo[b]thiophene-2-carbonyl)amino]-3-(3,4-dichlorophenyl)-acryloylamino]-3-(4-chlorophenyl)propionic acid], the IC50 was found to be 19 µM.

On to `O=C(N[C@@H](Cc1ccc(Cl)cc1)C(=O)O)/C(=C\c1cccc(C(F)(F)F)c1)NC(=O)C1CCN(c2nccc(C(F)(F)F)n2)CC1` [Compound 79, (S)-3-(4-Chlorophenyl)-2-(3-(3-trifluoromethylphenyl)-2-{[1-(4-trifluoromethyl-pyrimidin-2-yl)piperidine-4-carbonyl]amino}acryloylamino)propionic acid], for which the IC50 is 25.9 µM.

With `O=C(NC(COCc1ccccc1)C(=O)O)/C(=C\c1cccc(Oc2ccc(Cl)cc2)c1)NC(=O)c1ccc(C(F)(F)F)cc1` (stereo in doubt) [Compound 31, (S)-3-Benzyloxy-2-[3-[3-(4-chlorophenoxy)phenyl]-2-(4-trifluoromethyl-benzoylamino)acryloylamino]propionic acid], the IC50 came to 7.7 µM.

With `Cc1ccc(/C=C(/NC(=O)c2ccc(-c3ccccc3)cc2)C(=O)NC(C(=O)O)C(C)(C)S)o1` (centres unmarked) [Compound 94], the half-maximal inhibitory concentration (IC50) came to 55.2 µM.

As to `Cc1ccccc1/C=C(/NC(=O)c1ccc(C(F)(F)F)cc1)C(=O)N[C@@H](CSCc1ccccc1)C(=O)O` [Compound 138], the IC50 is 100 µM.

For the molecule `NC(=O)C[C@@H](NC(=O)/C(=C\c1ccc(Cl)c(Cl)c1)NC(=O)c1ccc(-c2ccccc2)cc1)C(=O)O` [Compound 112], the IC50 was determined as 16.6 µM.

As for `CC(C)c1ccc(/C=C(/NC(=O)c2ccc(C(F)(F)F)cc2)C(=O)N[C@@H](COCc2ccccc2)C(=O)O)cc1` [Compound 32, (S)-3-Benzyloxy-2-[3-(4-isopropylphenyl)-2-(4-trifluoromethylbenzoylamino)-acryloylamino]propionic acid], the IC50 turned out to be 34.8 µM.

For `O=C(NC(Cc1ccc(Cl)cc1)C(=O)O)/C(=C\c1ccc(Cl)c(Cl)c1)NC(=O)c1ccc(C(F)(F)F)cc1` (centres unmarked) [Compound 91], the IC50 was found to be 7.6 µM.

Turning to `O=C(N[C@@H](CSCc1ccccc1)C(=O)O)/C(=C\c1ccc(Br)cc1)NC(=O)c1ccc(C(F)(F)F)cc1` [Compound 41, (R)-3-Benzylsulfanyl-2-[3-(4-bromophenyl)-2-(4-trifluoromethylbenzoylamino)-acryloylamino]propionic acid], the IC50 was 48 µM.

Consider `O=C(N[C@@H](CSCc1ccccc1)C(=O)O)/C(=C\c1ccccc1Cl)NC(=O)c1ccc(C(F)(F)F)cc1` [Compound 151], for which the half-maximal inhibitory concentration (IC50) is 50 µM.

Turning to `O=C(NC(Cc1ccc(C(F)(F)F)cc1)C(=O)O)/C(=C\c1cccc(C(F)(F)F)c1)NC(=O)c1ccc(-c2ccccc2)cc1` (centres unmarked) [Compound 72, 2-[2-[(Biphenyl-4-carbonyl)amino)-3-(3-trifluoromethylphenyl)acryloylamino]-3-(4-trifluoromethylphenyl)propionic acid], the IC50 is 12.8 µM.

As to `O=C(N/C(=C/c1ccc(-c2ccccc2)cc1)C(=O)N1CCCCC1C(=O)O)c1ccc(C(F)(F)F)cc1` (centres unmarked) [Compound 147], the IC50 came to 60 µM.

In the case of `O=C(NN(Cc1ccc(Oc2ccccc2)cc1)C(=O)N[C@@H](CSCc1ccccc1)C(=O)O)c1ccc(C(F)(F)F)cc1` [Compound 12, 4-Trifluoromethylbenzoic acid-N′-[(4-phenoxyphenyl)methyl]-N′-[[[(2-benzylthio)-1-carboxyethyl]amino]carbonyl]hydrazide], the IC50 is 12.5 µM.
